In patent US8609650B2, “Bridged bicyclic aryl and bridged bicyclic heteroaryl substituted triazoles useful as Axl inhibitors” (Rigel Pharmaceuticals, Inc., priority 2006, dated 2013):

Target: T1, Axl (Homo sapiens, UniProt P30530)
T1 construct: endogenous in cells; host or cells: HeLa cells
T1 sequence (P30530 26-894): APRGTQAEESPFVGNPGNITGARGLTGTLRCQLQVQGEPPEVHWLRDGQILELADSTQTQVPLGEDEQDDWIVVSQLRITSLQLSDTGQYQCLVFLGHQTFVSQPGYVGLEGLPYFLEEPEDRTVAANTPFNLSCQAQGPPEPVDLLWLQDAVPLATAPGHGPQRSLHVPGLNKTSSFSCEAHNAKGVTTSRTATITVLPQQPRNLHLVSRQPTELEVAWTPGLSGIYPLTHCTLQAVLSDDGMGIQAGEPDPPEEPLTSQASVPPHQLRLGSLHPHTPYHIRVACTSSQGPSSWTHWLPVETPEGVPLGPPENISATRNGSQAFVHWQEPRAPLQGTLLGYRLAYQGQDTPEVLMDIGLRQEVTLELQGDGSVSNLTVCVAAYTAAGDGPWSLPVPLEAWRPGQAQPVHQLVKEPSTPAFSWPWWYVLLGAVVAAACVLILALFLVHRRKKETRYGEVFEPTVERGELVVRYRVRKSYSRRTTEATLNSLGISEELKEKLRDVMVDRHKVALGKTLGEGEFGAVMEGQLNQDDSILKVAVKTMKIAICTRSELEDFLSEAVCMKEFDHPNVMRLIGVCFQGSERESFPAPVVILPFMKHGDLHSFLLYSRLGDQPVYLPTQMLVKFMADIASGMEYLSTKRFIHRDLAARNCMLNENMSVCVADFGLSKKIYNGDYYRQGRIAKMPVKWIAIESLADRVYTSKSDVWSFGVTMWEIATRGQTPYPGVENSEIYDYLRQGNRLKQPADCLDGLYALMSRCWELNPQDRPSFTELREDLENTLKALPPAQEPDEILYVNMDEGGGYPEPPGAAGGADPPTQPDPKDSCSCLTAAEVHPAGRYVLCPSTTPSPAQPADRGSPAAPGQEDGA
Experiment: Phospho-Akt In-Cell Western Assay (ability to inhibit Axl activity)
Format: cell-based
Settings: Hela cells, stimulated by Axl-antibody cross-linking, phospho-Akt chemiluminescence normalized to relative cell number
Method: The compounds of the invention were tested in the following assay for their ability to inhibit Axl activity.
Phospho-Akt In-Cell Western Assay
• Cell culture plate: 96 well assay plate (Corning 3610), white, clear bottom, tissue-culture treated. • Cells: Hela cells. • Starvation medium: For Axl stimulation: 0.5% FCS (fetal calf serum) in DMEM, plus Axl/Fc (extracellular domain of AXL fused to immunoglobulin Fc region) (R&D, 154-AL) 500 ng/mL. • For EGF (epidermal growth factor) stimulation: 0.5% FCS in DMEM (Dulbecco's modified Eagles medium). • Poly-L-Lysine 0.01% solution (the working solution): 10 μg/ml, dilute In PBS (phosphate buffered saline). • Axl antibody cross-linking: • 1st: Mouse anti-Axl (R&D, MAB154). • 2nd: Biotin-SP-conjugated AffiniPure goat anti-mouse IgG (H+L) (Jackson ImmunoResearch #115-065-003). • Fixing buffer: 4% formaldehyde in PBS. • Wash buffer: 0.1% TritonX-100 in PBS. • Quenching buffer: 3% H2O2, 0.1% Azide in wash buffer, Azide and hydrogen peroxide (H2O2) are added fresh. • Blocking buffer: 5% BSA in TBST (tris buffered saline plus 0.1% Tween 20). • Primary antibody: Rabbit anti-human Phospho-Akt antibody (Cell Signaling 9271): 1×250 diluted in blocking buffer. • Secondary antibody: HRP (horse radish peroxidase)-conjugated Goat anti-Rabbit secondary, stock solution: Jackson ImmunoResearch (Goat anti-Rabbit HRP, #111-035-144) 1:1 diluted in glycerol, store at −20° C. The working solution: 1×2000 dilution of stock in blocking buffer. • Chemiluminescent working solution (Pierce, 37030): SuperSignal ELISA (enzyme linked immunosorbant assay) Pico Chemiluminescent substrate. • Crystal Violet solution: Stock: 2.5% Crystal violet in methanol, filtered and kept at ambient temperature. The working solution: dilute the stock 1:20 with PBS immediately before use. • 10% SDS: working solution: 5% SDS (sodium dodecylsulfate), diluted in PBS Methods: Day 1:
A 96 well TC (tissue culture treated) plate was coated with 10 μg/mL poly-L-Lysine at 37° C. for 30 min, washed twice with PBS, and air-dried for 5 minutes before cells were added. Hela cells were seeded at 10,000 cells/well and the cells were starved in 100 μL starvation medium containing Axl/Fc for 24 hrs.
The cells were pre-treated with test compounds by adding 100 μL of 2× test compound to the starvation medium on the cells. The cells were incubated at 37° C. for 1 hr before stimulation.
The cells were stimulated by Axl-antibody cross-linking as follows: A 5×1st/2nd Axl antibody mixture was made (37.5 μg/mL 1st/100 μg/mL 2nd) in starvation medium and nutated at 4° C. with thorough mixing for 1-2 hours for clustering. The resulting mix was warmed to 37° C. 50 μL of 5× Axl 1st/2nd of antibody cluster was added to the cells and the cells were incubated at 37° C. for 5 min.
After 5 minutes stimulation, the plate was flicked to remove medium and the plate was tapped onto paper towels. Formaldehyde (4.0% in PBS, 100 μL) was added to fix the cells and the cells were incubated at ambient temperature for 20 min without shaking.
The cells were washed with a plate washer buffer to remove the formaldehyde solution. The plate was flicked to removed excess wash buffer and tapped onto paper towels. Quenching buffer (100 μL) was added to each well and the cells were incubated at ambient temperature for 20 minutes without shaking.
The cells were washed with a plate washer buffer to remove the quenching buffer. Blocking buffer (100 μL) was added and the cells were incubated at ambient temperature for at least an hour with gentle shaking.
The cells were washed with a plate washer buffer and diluted primary antibody (50 μL) was added to each well (blocking buffer was added to the negative control wells instead). The plates were incubated overnight at 4° C. with gentle shaking.
The wash buffer was removed, diluted secondary antibody (100 μL) was added, and the cells were incubated at ambient temperature for 1 hour with gentle shaking. […]

Molecule | IC50 [nM]
Nc1nc(Nc2ccc3c(c2)CCNC3)nn1-c1ncc2c(n1)C1CCC2C1 (centres unmarked) [Compound 13, 1-(5,8-methano-5,6,7,8-tetrahydroquinazolin-2-yl)-N^3-(1,2,3,4-tetrahydroisoquinolin-6-yl)-1H-1,2,4-triazole-3,5-diamine] | > 20000
Nc1nc(Nc2ccc3c(c2)CCC(N2CCCC2)CC3)nn1-c1cc(-c2ccccc2)c2c(n1)C1CCC2C1 (centres unmarked) [Compound 49, 1-(5,8-methano-4-phenyl-5,6,7,8-tetrahydroquinoline-2-yl)-N^3-(7-pyrrolidin-1-yl-6,7,8,9-tetrahydro-5H-benzo[7]annulene-3-yl)-1H-1,2,4-triazole-3,5-diamine] | < 1000
Nc1nc(Nc2ccc(N3CCC(N4CCCC4)CC3)c(F)c2)nn1-c1cc(-c2cccnc2)c2c(n1)C1CCN2CC1 [Compound 63, 1-(1,4-ethano-8-pyridin-3-yl-1,2,3,4-tetrahydro-1,5-naphthyridin-6-yl)-N^3-(3-fluoro-4-(4-(pyrrolidin-1-yl)piperidin-1-yl)phenyl)-1H-1,2,4-triazole-3,5-diamine] | < 1000
Nc1nc(Nc2ccc(N3CCC(N4CCC(C(=O)O)CC4)CC3)c(F)c2)nn1-c1cc(-c2ccccc2)c2c(n1)C1CCN2CC1 [Compound 59, 1-(1,4-ethano-8-phenyl-1,2,3,4-tetrahydro-1,5-naphthyridin-6-yl)-N^3-(3-fluoro-4-(4-(4-carboxypiperidin-1-yl)piperidin-1-yl)phenyl)-1H-1,2,4-triazole-3,5-diamine] | < 1000
CN1CCN(c2ccc(Nc3nc(N)n(-c4nnc(-c5ccccc5)c5c4C4CCC5C4)n3)cc2)CC1 (centres unmarked) [Compound 42, 1-(5,8-methano-1-phenyl-5,6,7,8-tetrahydrophthalazine-4-yl)-N^3-(4-(4-methylpiperazin-1-yl)phenyl)-1H-1,2,4-triazole-3,5-diamine] | < 1000
COc1ccc(-c2cc(-n3nc(Nc4ccc(N5CCC(N6CCCC6)CC5)c(F)c4)nc3N)nc3c2N2CCC3CC2)cc1 [Compound 62, 1-(1,4-ethano-8-(4-methoxyphenyl)-1,2,3,4-tetrahydro-1,5-naphthyridin-6-yl)-N^3-(3-fluoro-4-(4-(pyrrolidin-1-yl)piperidin-1-yl)phenyl)-1H-1,2,4-triazole-3,5-diamine] | < 1000
Nc1nc(Nc2ccc(N3CCN(C4CCCCCCC4)CC3)cc2)nn1-c1ncc2c(n1)C1CCC2C1 (centres unmarked) [Compound 9, N^3-(4-(4-cyclooctylpiperazin-1-yl)phenyl)-1-(5,8-methano-5,6,7,8-tetrahydroquinazolin-2-yl)-1H-1,2,4-triazole-3,5-diamine] | < 1000
CN1CCN(c2ccc(Nc3nc(N)n(-c4ncc5c(n4)C4CCC5C4)n3)cc2)CC1 (centres unmarked) [Compound 4, 1-(5,8-methano-5,6,7,8-tetrahydroquinazolin-2-yl)-N^3-(4-(4-methylpiperazin-1-yl)phenyl)-1H-1,2,4-triazole-3,5-diamine] | < 1000
Cc1csc2c(-n3nc(Nc4cnc5c(c4)C4CCC(C5)N4C)nc3N)ncnc12 (centres unmarked) [Compound 26, 1-(7-methylthieno[3,2-d]pyrimidin-4-yl)-N^3-(5,7-ethano-5,6,7,8-tetrahydro-6-methyl-1,6-naphthyridin-3-yl)-1H-1,2,4-triazole-3,5-diamine] | < 1000
CN(C)C1CCN(c2ccc(Nc3nc(N)n(-c4cc(-c5cccs5)c5c(n4)C4CCC5C4)n3)cc2F)CC1 (centres unmarked) [Compound 54, 1-(5,8-methano-4-thiophen-2-yl-5,6,7,8-tetrahydroquinoline-2-yl)-N^3-(3-fluoro-4-(4-dimethylaminopiperidin-1-yl)phenyl)-1H-1,2,4-triazole-3,5-diamine] | < 1000
Nc1nc(Nc2ccc(N3CCC(N4CCCC4)CC3)c(F)c2)nn1-c1cc(-c2cccs2)c2c(n1)C1CCN2CC1 [Compound 30, 1-(1,4-ethano-8-thiophen-2-yl-1,2,3,4-tetrahydro-1,5-naphthyridin-6-yl)-N^3-(3-fluoro-4-(4-(pyrrolidin-1-yl)piperidin-1-yl)phenyl)-1H-1,2,4-triazole-3,5-diamine] | < 1000
Nc1nc(Nc2ccc(N3CCC(N4CCCC4)CC3)c(F)c2)nn1-c1cc(-c2ccccc2)c2c(n1)C1CCC2C1 (centres unmarked) [Compound 43, 1-(5,8-methano-4-phenyl-5,6,7,8-tetrahydroquinoline-2-yl)-N^3-(3-fluoro-4-(4-(pyrrolidin-1-yl)piperidin-1-yl)phenyl)-1H-1,2,4-triazole-3,5-diamine] | < 1000
CN1CCN(c2ccc(Nc3nc(N)n(-c4cc(-c5ccccc5)c5c(n4)C4CCN5CC4)n3)cc2)CC1 [Compound 35, 1-(1,4-ethano-8-phenyl-1,2,3,4-tetrahydro-1,5-naphthyridin-6-yl)-N^3-(4-(4-methylpiperazin-1-yl)phenyl)-1H-1,2,4-triazole-3,5-diamine] | < 1000
Cc1cc(Nc2nc(N)n(-c3cc(-c4ccccc4)c4c(n3)C3CCN4CC3)n2)cnc1N1CCN(CC2CC2)CC1 [Compound 50, 1-(1,4-ethano-8-phenyl-1,2,3,4-tetrahydro-1,5-naphthyridin-6-yl)-N^3-(3-methyl-2-(4-cyclopropylmethylpiperazin-1-yl)pyridine-5-yl)-1H-1,2,4-triazole-3,5-diamine] | < 1000
1-(5,8-methano-5,6,7,8-tetrahydroquinazolin-2-yl)-N^3-(4-(morpholin-1-yl)phenyl)-1H-1,2,4-triazole-3,5-diamine [Compound 5] | 1000 to 10000
COC(=O)[C@@H]1CCCN1C1CCN(c2ccc(Nc3nc(N)n(-c4cc(-c5ccccc5)c5c(n4)C4CCN5CC4)n3)cc2F)CC1 [Compound 60, 1-(1,4-ethano-8-phenyl-1,2,3,4-tetrahydro-1,5-naphthyridin-6-yl)-N^3-(3-fluoro-4-(4-((2S)-2-methyloxycarbonylpyrrolidin-1-yl)piperidin-1-yl)phenyl)-1H-1,2,4-triazole-3,5-diamine] | < 1000
CN1CCN(c2ccc(Nc3nc(N)n(-c4ncnc5c4C4CCC5C4)n3)cc2)CC1 (centres unmarked) [Compound 20, 1-(5,8-methano-5,6,7,8-tetrahydroquinazolin-4-yl)-N^3-(4-(4-methylpiperazin-1-yl)phenyl)-1H-1,2,4-triazole-3,5-diamine] | < 1000
